Converted amounts (≈) assume the structure as drawn.
Key:
[1] = Volume of distribution at steady state in rat at 0.5 mg/kg, iv by LC-MS/MS analysis; type: ADME, organism-based; settings: in vivo, read-out: Vdss
[2] = Aqueous solubility of compound in PBS buffer; type: physicochemical
[3] = Oral bioavailability in rat at 40 mg/kg administered via gavage by LC-MS/MS analysis; type: ADME, organism-based; settings: in vivo
[4] = test system: P-gp; assay: Apparent permeability in MDCK cells harboring Pgp; type: ADME, cell-based, Canis lupus familiaris; settings: dog, MDCK-MDR1
[5] = Oral bioavailability in rat at 10 mg/kg administered via gavage by LC-MS/MS analysis; type: ADME, organism-based; settings: in vivo
[6] = test system: Plasma; assay: Unbound drug uptake in plasma of formalin-induced nociception Sprague-Dawley rat model at 30 mg/kg, po; type: ADME, organism-based; settings: in vivo
[7] = test system: Plasma; assay: Drug uptake in plasma of formalin-induced nociception Sprague-Dawley rat model at 30 mg/kg, po; type: ADME, organism-based; settings: in vivo
[8] = test system: Plasma; assay: Drug uptake in plasma of Sprague-Dawley rat at 100 mg/kg, po; type: ADME, organism-based; settings: in vivo
[9] = test system: Plasma; assay: Unbound drug uptake in plasma of Sprague-Dawley rat at 300 mg/kg, po; type: ADME, organism-based; settings: in vivo
[10] = test system: Plasma; assay: Unbound drug uptake in plasma of Sprague-Dawley rat at 100 mg/kg, po; type: ADME, organism-based; settings: in vivo
[11] = test system: Plasma; assay: Unbound drug uptake in plasma of formalin-induced nociception Sprague-Dawley rat model at 100 mg/kg, po; type: ADME, organism-based; settings: in vivo
[12] = test system: Plasma; assay: Drug uptake in plasma of formalin-induced nociception Sprague-Dawley rat model at 100 mg/kg, po; type: ADME, organism-based; settings: in vivo
[13] = test system: Plasma; assay: Unbound drug uptake in plasma of Sprague-Dawley rat at 30 mg/kg, po; type: ADME, organism-based; settings: in vivo
[14] = test system: Plasma; assay: Drug uptake in plasma of Sprague-Dawley rat at 300 mg/kg, po; type: ADME, organism-based; settings: in vivo
[15] = test system: Plasma; assay: Drug uptake in Sprague-Dawley rat plasma at 30 mg/kg, po; type: ADME, organism-based; settings: in vivo
[16] = Oral bioavailability in rat at 100 mg/kg administered via gavage by LC-MS/MS analysis; type: ADME, organism-based; settings: in vivo
[17] = Ratio of drug uptake in brain to plasma of formalin-induced nociception Sprague-Dawley rat model at 100 mg/kg, po; type: ADME, organism-based; settings: read-out: BPR
[18] = Oral bioavailability in rat at 30 mg/kg administered via gavage by LC-MS/MS analysis; type: ADME, organism-based; settings: in vivo

Row | Structure (SMILES) | Vd [1] [L/kg] | solubility [2] [µM] | Papp [4] [×10⁻⁶ cm/s] | bioavailability [5] [%] | also measured
1 | O=C(Nc1cccc(C(F)(F)F)c1-c1cccnc1)c1cccc(-c2ncccc2C(F)(F)F)c1 | 0.57 | 22 (≈ 10.7 µg/mL) | – | – | bioavailability [3]: 26%
2 | O=C(COc1cccc2cccnc12)Nc1ccccc1N1CCOCC1 | – | – | 37 | – | –
3 | O=C(Nc1cccc(C(F)(F)F)c1-c1cccnc1)c1cccc(-c2ncccc2Cl)c1 | 1.27 | 10 (≈ 4.54 µg/mL) | – | 58 | –
4 | O=C(Nc1cccc(C(F)(F)F)c1-c1cccnc1)c1cccc(-c2ncccc2OC(F)F)c1 | 3 | 56 (≈ 27.2 µg/mL) | 31 | – | bioavailability [18]: 92%

The next lines start with results.

Row | Vd [1] [L/kg] | solubility [2] [µM] | Papp [4] [×10⁻⁶ cm/s] | bioavailability [5] [%] | Structure (SMILES) | also measured
5 | 1.29 | 470 (≈ 204 µg/mL) | – | – | Nc1cccnc1-c1cccc(C(=O)Nc2cccc(C(F)(F)F)c2-c2cccnc2)c1 | Cp(f) [6]: 61 nM; concentration [7]: 342 nM; concentration [8]: 1800 nM; Cp(f) [9]: 714 nM; Cp(f) [10]: 322 nM; Cp(f) [11]: 281 nM; concentration [12]: 1570 nM; Cp(f) [13]: 98 nM; concentration [14]: 3990 nM; concentration [15]: 549 nM; bioavailability [16]: 73%; Kp [17]: 0.36
6 | 1.4 | 12 (≈ 5.03 µg/mL) | – | 54 | O=C(Nc1cccc(C(F)(F)F)c1-c1cccnc1)c1cccc(-c2ccccn2)c1 | –

Source: ChEMBL document CHEMBL4052739, “Discovery of a biarylamide series of potent, state-dependent NaV1.7 inhibitors” (Bioorg Med Chem Lett, 2017)
